Experimental data reported in patent publication US20100137399A1, “PREVENTIVE AND/OR THERAPEUTIC AGENT FOR URINE COLLECTION DISORDER ACCOMPANYING LOWER URINARY TRACT OBSTRUCTION” (KISSEI PHARMACEUTICAL CO., LTD., priority 2004, published 2010).
Counter-ions that a name gives are not always drawn.

Legend:
α1D-AR subtype = molecular target: T1, α1D-AR subtype (Homo sapiens, UniProt P25100); settings: Patent Reference 3 and Non-patent Reference 5; cited from earlier work
T1 sequence (P25100 1-572): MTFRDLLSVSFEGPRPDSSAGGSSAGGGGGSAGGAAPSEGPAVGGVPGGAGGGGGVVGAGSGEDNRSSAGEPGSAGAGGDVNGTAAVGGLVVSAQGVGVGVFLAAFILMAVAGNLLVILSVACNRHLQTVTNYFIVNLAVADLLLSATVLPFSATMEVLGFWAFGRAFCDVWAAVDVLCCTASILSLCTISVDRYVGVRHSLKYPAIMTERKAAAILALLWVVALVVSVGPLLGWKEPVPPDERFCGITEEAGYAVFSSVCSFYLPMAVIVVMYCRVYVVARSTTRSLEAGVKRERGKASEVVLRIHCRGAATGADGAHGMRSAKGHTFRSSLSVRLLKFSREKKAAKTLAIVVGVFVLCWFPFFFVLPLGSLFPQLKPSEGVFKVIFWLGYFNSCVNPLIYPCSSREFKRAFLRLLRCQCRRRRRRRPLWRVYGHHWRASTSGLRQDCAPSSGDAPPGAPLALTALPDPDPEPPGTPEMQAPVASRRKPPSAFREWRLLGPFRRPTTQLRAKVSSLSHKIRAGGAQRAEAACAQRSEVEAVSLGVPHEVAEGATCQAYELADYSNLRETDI

α1A-AR subtype = molecular target: T2, α1A-AR subtype (Homo sapiens, UniProt P35348); settings: Patent Reference 3 and Non-patent Reference 5; cited from earlier work
T2 sequence (P35348 1-466): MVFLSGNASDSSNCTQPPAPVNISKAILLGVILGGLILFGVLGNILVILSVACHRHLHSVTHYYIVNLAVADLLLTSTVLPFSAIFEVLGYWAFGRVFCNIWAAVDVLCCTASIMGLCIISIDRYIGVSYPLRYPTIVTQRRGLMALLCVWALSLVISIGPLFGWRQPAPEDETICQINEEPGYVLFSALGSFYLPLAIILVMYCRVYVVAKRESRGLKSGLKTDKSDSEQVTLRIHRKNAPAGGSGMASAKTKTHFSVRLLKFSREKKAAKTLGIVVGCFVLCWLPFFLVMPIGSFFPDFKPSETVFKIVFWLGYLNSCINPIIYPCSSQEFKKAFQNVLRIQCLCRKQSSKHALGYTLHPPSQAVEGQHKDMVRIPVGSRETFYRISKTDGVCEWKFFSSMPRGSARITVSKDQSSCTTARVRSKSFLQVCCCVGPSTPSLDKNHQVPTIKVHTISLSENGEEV

α1B-AR subtype = molecular target: T3, α1B-AR subtype (Homo sapiens, UniProt P35368); settings: Patent Reference 3 and Non-patent Reference 5; cited from earlier work
T3 sequence (P35368 1-520): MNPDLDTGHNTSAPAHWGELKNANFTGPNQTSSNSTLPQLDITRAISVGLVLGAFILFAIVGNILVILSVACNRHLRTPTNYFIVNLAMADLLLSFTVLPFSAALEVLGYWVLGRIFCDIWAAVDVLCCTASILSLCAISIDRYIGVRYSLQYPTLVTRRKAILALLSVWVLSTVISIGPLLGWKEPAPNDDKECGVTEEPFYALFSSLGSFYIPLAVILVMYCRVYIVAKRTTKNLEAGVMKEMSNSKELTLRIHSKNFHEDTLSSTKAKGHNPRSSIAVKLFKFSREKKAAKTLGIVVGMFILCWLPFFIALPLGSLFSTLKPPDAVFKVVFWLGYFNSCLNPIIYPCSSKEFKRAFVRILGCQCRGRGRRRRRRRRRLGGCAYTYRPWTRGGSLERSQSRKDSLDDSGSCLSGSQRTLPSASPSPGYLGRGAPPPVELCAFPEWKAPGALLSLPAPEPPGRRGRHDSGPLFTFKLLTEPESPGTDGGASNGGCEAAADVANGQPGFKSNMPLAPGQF

[1] = tested on: patients with urinary disturbance associated with benign prostatic hyperplasia; experiment: Placebo-control parallel groups-comparing double blind clinical trial, I-PSS changes from pre-administration; assay type: in vivo, human; settings: for I-PSS (irritative symptom) Changes / I-PSS (obstructive symptom) Changes / Total I-PSS Changes: oral, 12 weeks
Text: Using patients with urinary disturbance associated with benign prostatic hyperplasia as the subjects, the clinical effects of silodosin and tamsulosin hydrochloride were examined by a placebo-control parallel groups-comparing double blind trial, using changes in the total I-PSS (International Prostate Symptom Score) from pre-administration as the primary endpoint. The I-PSS consists of 3 items of irritative symptoms representing the symptoms at the time of storing (Nocturia, Urgency and Urination within 2 hours) and 4 items of obstructive symptoms representing the symptoms at the time of voiding (Sensation of residual urine, Intermittency of urinary stream, Power of urinary stream and Straining during urination), prepared for use in the judgment of various therapeutic effects on the dysuria associated with benign prostatic hyperplasia, but this is not specific to prostatic hyperplasia and can also be used for the judgment of therapeutic effects on female dysuria and the like (Non-patent Reference 1).
Effects of silodosin (4 mg per once, twice a day) and tamsulosin hydrochloride (0.2 mg per once, once a day) on the storage disorder were examined by the following method.
Patients to be tested: 455 patients with dysuria associated with benign prostatic hyperplasia
Administration method: oral administration for 12 weeks
Primary endpoints: total score of I-PSS, I-PSS irritative symptom score and I-PSS obstructive symptom score
Analysis method: all of the finally evaluated cases were stratified into groups of patients having a total score of less than 6 and that of 6 or more regarding the “Urination within 2 hours” and “Urgency” of I-PSS, and average values of respective changes in the total score of I-PSS, I-PSS irritative symptom score and I-PSS obstructive symptom score before and after the administration were calculated for each group.
Administration groups: silodosin group (116 cases having a pre-administration score of less than 6, and 58 cases having that of 6 or more), tamsulosin group (135 cases having a pre-administration score of less than 6, and 57 cases having that of 6 or more), a placebo group (61 cases having a pre-administration score of less than 6, and 28 cases having that of 6 or more)
Not at all: 0 point; Less than 1 time in 5: 1 point; Less than 1 time in 2: 2 points; About 1 time in 2: 3 points; More than 1 time in 2: 4 points; Almost always: 5 points.
None: 0 point; 1 time: 1 point; 2 times: 2 points; 3 times: 3 points; 4 times: 4 points; 5 times or more: 5 points.

[2] = Overall (all patients), average change
[3] = patients with pre-administration total score of "Urination within 2 hours" and "Urgency" less than 6, average change before/after administration
[4] = pre-administration score 6 or more, average change
[5] = pre-administration score less than 6, average change

| Structure (SMILES) | Action upon α1D-AR subtype (in words) (α1D-AR subtype) | Action upon α1A-AR subtype (in words) (α1A-AR subtype) | Inverse agonist activity (in words) (α1A-AR subtype) | Action upon α1B-AR subtype (in words) (α1B-AR subtype) | I-PSS (irritative symptom) Changes [1, 2] | I-PSS (obstructive symptom) Changes [1, 2] | Total I-PSS Changes [1, 2] | Effect on I-PSS irritative symptom score in patients showing storage disorders (in words) ([1]; particularly patients with 6 or more total score of "Urination within 2 hours" and "Urgency" at pre-administration) | Total I-PSS Changes [1, 3] | I-PSS (irritative symptom) Changes [1, 4] | I-PSS (obstructive symptom) Changes [1, 4] | Total I-PSS Changes [1, 4] | I-PSS (irritative symptom) Changes [1, 5] | I-PSS (obstructive symptom) Changes [1, 5] |
| --- | --- | --- | --- | --- | --- | --- | --- | --- | --- | --- | --- | --- | --- | --- |
| C[C@H](Cc1cc2c(c(C(N)=O)c1)N(CCCO)CC2)NCCOc1ccccc1OCC(F)(F)F [Silodosin, (−)-1-(3-hydroxypropyl)-5-((2R)-2-{[2-({2-[(2,2,2-trifluoroethyl)-oxy]phenyl}oxy)ethyl]amino}propyl)2,3-dihydro-1H-indole-7-carboxamide] | hardly acts | selectively acts | does not show inverse agonist activity | hardly acts | −2.5 | −5.8 | −8.3 | has the effect to improve I-PSS irritative symptom score | −6.8 | −4.3 | −7.1 | −11.3 | −1.6 | −5.2 |
| CCOc1ccccc1OCCN[C@H](C)Cc1ccc(OC)c(S(N)(=O)=O)c1 [Tamsulosin, tamsulosin hydrochloride, reference compound] | – | – | – | – | −2.1 | −4.8 | −6.8 | – | −5.9 | −3.9 | −5.2 | −9.1 | −1.3 | −4.6 |
